According to publication PMC6566077 (Chemical Science, 2019):
Values after ≈ are worked out from the molar mass of the structure shown. Like-named read-outs stand apart in the source and are kept apart here.

Experiments:
[1] = assay type: binding; settings: for BLI binding to boronic acid functionalised sensor: components 0-100 µg/mL; for Kd: BLI, steady-state model, boronic acid functionalised sensor
[2] = Haemolysis assay; assay type: cell-based; settings: sheep, ovine red blood cells, versus 100% lysis with lysis buffer
Experimental: (§1) Following incubation for 24 hours at
(§2) at 570 nm (BioTek Synergy HT microplate reader). All assays were undertaken with 3 independent experimental
(§3) Two-fold serial dilutions were then carried out diluting
(§4) 100 μL of ovine blood was
(§5) HT Microplate Reader). […] All assays
(§6) were undertaken with 3 independent experimental repeats.
(§7) DMSO compounds for compounds 3, 6 and 8.
(§8) Following addition of the
(§9) red colouring across whole well = agglutination). All assays were undertaken with three independent experimental

[3] = tested on: Escherichia coli; assay: microbe, parasite or virus in culture; assay type: cell-based, Escherichia coli (Top 10)
[4] = tested on: A549 cells; assay: Cytotoxicity assay (resazurin, 24 h); settings: 24 h exposure, viability by resazurin
[5] = tested on: Mycobacterium smegmatis; assay: microbe, parasite or virus in culture; assay type: cell-based, Mycobacterium smegmatis MC2155; settings: for MIC: Mycolicibacterium smegmatis, read-out: MIC Mycobacteria, Mycobacterium smegmatis
[6] = tested on: Mycobacterium bovis BCG; assay: microbe, parasite or virus in culture; assay type: cell-based; settings: for MIC: Mycobacterium tuberculosis variant bovis BCG, BCG, read-out: MIC Mycobacteria, Mycobacterium bovis BCG
[7] = tested on: Pseudomonas putida; assay: microbe, parasite or virus in culture; assay type: cell-based
[8] = tested on: Mycobacterium tuberculosis; assay: microbe, parasite or virus in culture; assay type: cell-based, Mycobacterium tuberculosis H37Rv
[9] = tested on: ovine red blood cells; assay: Haemolysis assay; assay type: cell-based; settings: 1 hour, tested at 12.5 mM due to solubility issues
Experimental: as §1, §2, §3, §4, §5, §6, §7, §8, §9

[10] = tested on: A549 cells
[11] = tested on: M. tuberculosis H37Rv; assay type: cell-based, Mycobacterium tuberculosis H37Rv; settings: for Outcome, interaction profile with Meropenem / ΣFIC, interaction profile with Meropenem: M. tuberculosis H37Rv, checkerboard; for Interaction with meropenem in checkerboard assay (words, Figure S7): representative checkerboard images
[12] = tested on: ConA mediated agglutination of ovine blood; assay type: cell-based
[13] = tested on: Jurkat E6.1 cells; assay: Cytotoxicity assay (resazurin, 24 h); assay type: cell-based, human; settings: 24 h exposure, viability by resazurin
[14] = tested on: M. tuberculosis H37Rv; assay type: cell-based, Mycobacterium tuberculosis H37Rv; settings: checkerboard
[15] = tested on: Caco-2 cells; assay: Cytotoxicity assay (resazurin, 24 h); assay type: cell-based, human; settings: 24 h exposure, viability by resazurin
[16] = tested on: Mycobacterium tuberculosis H37Rv; assay: Minimum bactericidal concentration (MBC), CFU plating; assay type: cell-based; settings: actively growing M. tuberculosis H37Rv, lowest concentration with no CFUs
[17] = Mycobacterium tuberculosis; M. tuberculosis H37Rv, compound alone, REMA checkerboard (Table S3); read-out: MIC
[18] = Escherichia coli; read-out: MIC Gram-negative, Escherichia coli
[19] = Pseudomonas putida; read-out: MIC Gram-negative, Pseudomonas putida
[20] = Mycobacterium tuberculosis; read-out: MIC Mycobacteria, Mycobacterium tuberculosis

## Lipomannan [LM]
[1]
  BLI binding to boronic acid functionalised sensor: interacted strongly

## O=C(O)c1ccc(B(O)O)cc1 [Compound 3, reference compound]
[2]
  hemolysis at 1 h: 0.9%
[3]; Escherichia coli, read-out: MIC Gram-negative, Escherichia coli
  MIC: > 25 mM
[4]
  A549 (MIC99): > 25 mM
[5]
  MIC: 25 mM (≈ 4150 µg/mL)
[6]
  MIC: 6.25 mM (≈ 1040 µg/mL)
[7]; Pseudomonas putida, read-out: MIC Gram-negative, Pseudomonas putida
  MIC: 25 mM (≈ 4150 µg/mL)
[8]; Mycobacterium tuberculosis, read-out: MIC Mycobacteria, Mycobacterium tuberculosis
  MIC: 6.25 mM (≈ 1040 µg/mL)

## O=C(CCN(CCOCCOCCN(CCC(=O)NCCOCCOCCNC(=O)c1cccc(B(O)O)c1)CCC(=O)NCCOCCOCCNC(=O)c1cccc(B(O)O)c1)CCC(=O)NCCOCCOCCNC(=O)c1cccc(B(O)O)c1)NCCOCCOCCNC(=O)c1cccc(B(O)O)c1 [Compound 8, 2,2’-(Ethylenedioxy)bis(ethylamine) G1 PAMAM tetra(3-phenylboronic acid)amide dendrimer]
[9]
  Haemolysis (%): 4.5%
[3]
  MIC Gram-negative, Escherichia coli: >25 mM
[5]
  MIC Mycobacteria, Mycobacterium smegmatis: 0.78 mM (≈ 1210 µg/mL)
[6]; resazurin reduction microtitre plate assay
  MIC Mycobacteria, Mycobacterium bovis BCG: 1.56 mM (≈ 2420 µg/mL)
[10]
  A549 (MIC99): > 25 mM
[7]
  MIC Gram-negative, Pseudomonas putida: >25 mM
[8]
  MIC Mycobacteria, Mycobacterium tuberculosis: 0.78 to 1.56 mM
  MIC against Mtb: 0.78 mM (≈ 1210 µg/mL)

## Phosphatidylinositol Mannoside 6 [PIM6]
[1]
  BLI binding to boronic acid functionalised sensor: weak binding affinity

## Galactan [reference compound]
[1]
  BLI binding to boronic acid functionalised sensor: no binding was observed

## lipopolysaccharide [LPS, reference compound]
[1]
  BLI binding to boronic acid functionalised sensor: weak binding

## CC1(C)[C@H](C(=O)O)N2C(=O)C[C@H]2S1(=O)=O [Sulbactam, reference compound]
[11]
  Outcome, interaction profile with Meropenem: Synergistic (ΣFICs of ≤0.5 designate synergistic activity)
  ΣFIC, interaction profile with Meropenem: 0.313
  Interaction with meropenem in checkerboard assay (words, Figure S7): synergistic activity
[11]; listed as sulbactam
  ΣFIC, interaction profile with Meropenem: 0.3
[8]; [17]
  MIC: 0.134 mM

## Trehalose Monomycolate [TMM]
[1]; read-out: Kd
  Kd: 12 µM
[1]
  BLI binding to boronic acid functionalised sensor: interacted strongly

## monosialodihexosylganglioside [GM3, reference compound]
[1]
  BLI binding to boronic acid functionalised sensor: no detectable binding

## Phosphatidylinositol Mannosides 1 & 2 [PIM 1 + 2]
[1]
  BLI binding to boronic acid functionalised sensor: very weak binding

## O=C(NCCOCCOCCOCCOCCOCCOCCOCCOCCOCCOCCOCCOCCOCCOCCOCCOCCOCCOCCOCCOCCOCCOCCOCCNC(=O)c1cccc(B(O)O)c1)c1cccc(B(O)O)c1 [Compound 7, N,N'-(polyoxyethylenebis(amine))bis(3-phenylboronic acid)amide]
[3]; [18]
  MIC: > 25 mM
[5]
  MIC: 25 mM (≈ 34200 µg/mL)
[6]
  MIC: > 25 mM
[7]; [19]
  MIC: > 25 mM

## O=C(NCCNC(=O)c1cccc(B(O)O)c1)c1cccc(B(O)O)c1 [Compound 4, N,N'-(ethylenediamine)bis(3-phenylboronic acid)amide]
[2]
  hemolysis at 1 h: 0%
[3]; [18]
  MIC: > 25 mM
[4]
  A549 (MIC99): 25 mM
[5]
  MIC: 3.13 mM (≈ 1110 µg/mL)
[11]
  Outcome, interaction profile with Meropenem: Additive (values in between correspond to additivity)
  ΣFIC, interaction profile with Meropenem: 1
[6]
  MIC: 0.78 mM (≈ 278 µg/mL)
[12]
  ConA agglutination: No inhibition
[13]
  Jurkat (MIC99): 12.5 mM
[14]
  Outcome, interaction profile with Rifampicin: Additive (values in between correspond to additivity)
  ΣFIC, interaction profile with Rifampicin: 2
[15]
  Caco-2 (MIC99): 50 mM
[7]; [19]
  MIC: > 25 mM
[16]
  MBC: 6.25 mM (≈ 2220 µg/mL)
[8]; [17]
  MIC: 3.13 mM
[8]; [20]
  MIC: 1.56 to 3.13 mM (≈ 555 to 1110 µg/mL)

## O=C(NCCOCCOCCNC(=O)c1cccc(B(O)O)c1)c1cccc(B(O)O)c1 [Compound 5, N,N'-(2,2-(ethylenedioxy)bis(ethylamine))bis(3-phenylboronic acid)amide]
[2]
  hemolysis at 1 h: 0%
[3]; [18]
  MIC: > 25 mM
[4]
  A549 (MIC99): 25 mM
[5]
  MIC: 3.13 mM (≈ 1390 µg/mL)
[11]
  Outcome, interaction profile with Meropenem: Additive (values in between correspond to additivity)
  ΣFIC, interaction profile with Meropenem: 0.625
[6]
  MIC: 0.78 to 1.56 mM (≈ 346 to 693 µg/mL)
[12]
  ConA agglutination: No inhibition
[13]
  Jurkat (MIC99): 12.5 mM
[14]
  Outcome, interaction profile with Rifampicin: Additive (values in between correspond to additivity)
  ΣFIC, interaction profile with Rifampicin: 2
[15]
  Caco-2 (MIC99): 50 mM
[7]; [19]
  MIC: > 25 mM
[16]
  MBC: 6.25 mM (≈ 2780 µg/mL)
[8]; [17]
  MIC: 3.13 mM
[8]; [20]
  MIC: 1.56 to 3.13 mM (≈ 693 to 1390 µg/mL)

## O=C(O)c1cccc(B(O)O)c1 [Compound 2, reference compound]
[2]
  hemolysis at 1 h: 4.5%
[3]; [18]
  MIC: > 25 mM
[4]
  A549 (MIC99): > 25 mM
[5]
  MIC: 12.5 to 25 mM (≈ 2070 to 4150 µg/mL)
[6]
  MIC: 12.5 mM (≈ 2070 µg/mL)
[7]; [19]
  MIC: 12.5 to 25 mM (≈ 2070 to 4150 µg/mL)
[8]; [20]
  MIC: 6.25 to 12.5 mM (≈ 1040 to 2070 µg/mL)

## Trehalose Dimycolate [TDM]
[1]; read-out: Kd
  Kd: 4 µM
[1]
  BLI binding to boronic acid functionalised sensor: interacted strongly

## O=C(NCCCOCCOCCOCCCNC(=O)c1cccc(B(O)O)c1)c1cccc(B(O)O)c1 [Compound 6, N,N'-(4,7,10-trioxa-1,13-tridecanediamine)bis(3-phenylboronic acid)amide]
[2]
  hemolysis at 1 h: 0%
[3]; [18]
  MIC: > 25 mM
[4]
  A549 (MIC99): 25 mM
[5]
  MIC: 3.13 mM (≈ 1620 µg/mL)
[11]
  Outcome, interaction profile with Meropenem: Additive (values in between correspond to additivity)
  ΣFIC, interaction profile with Meropenem: 0.625
  Interaction with meropenem in checkerboard assay (words, Figure S7): additivity
[6]
  MIC: 0.78 to 1.56 mM (≈ 403 to 805 µg/mL)
[12]
  ConA agglutination: No inhibition
[13]
  Jurkat (MIC99): 25 mM
[14]
  Outcome, interaction profile with Rifampicin: Additive (values in between correspond to additivity)
  ΣFIC, interaction profile with Rifampicin: 2
[15]
  Caco-2 (MIC99): 25 mM
[7]; [19]
  MIC: > 25 mM
[16]
  MBC: 6.25 mM (≈ 3230 µg/mL)
[8]; [17]
  MIC: 1.56 mM
[8]; [20]
  MIC: 1.56 to 3.13 mM (≈ 805 to 1620 µg/mL)

## dextran [reference compound]
[1]
  BLI binding to boronic acid functionalised sensor: no binding was observed

## Lipoarabinomannan [LAM]
[1]
  Kd: 41.5 μg mL^–1
  BLI binding to boronic acid functionalised sensor: interacted strongly

## mycolic acid methyl esters [MAMEs]
[1]
  BLI binding to boronic acid functionalised sensor: no detectable binding

## OB(O)c1ccccc1 [Compound 1, reference compound]
[2]
  hemolysis at 1 h: 0%
[3]; [18]
  MIC: 25 mM (≈ 3050 µg/mL)
[4]
  A549 (MIC99): 50 mM
[5]
  MIC: 12.5 to 25 mM (≈ 1520 to 3050 µg/mL)
[6]
  MIC: 3.13 mM (≈ 382 µg/mL)
[7]; [19]
  MIC: 12.5 to 25 mM (≈ 1520 to 3050 µg/mL)
[8]; [20]
  MIC: 6.25 to 12.5 mM (≈ 762 to 1520 µg/mL)
